Earlier results in US20060275372A1 (Elan Pharma International Limited, priority 2005, published 2006).
Structures can show the parent of a compound that is named as a salt.

Settings: fasting state as compared to the fed state

Cc1ccc(NC(=O)c2ccc(CN3CCN(C)CC3)cc2)cc1Nc1nccc(-c2cccnc2)n1 [Imatinib mesylate, 4-[(4-Methyl-1-piperazinyl)methyl]-N-[4-methyl-3-[[4-(3-pyridinyl)-2-pyrimidinyl]amino]-phenyl]benzamide methanesulfonate]
bioavailability: limited bioavailability
